Test system: MMP-1
Test: Inhibition of MMP-1 synthesis: release of MMP-1 from dermal fibroblasts as an effect of UV radiation (Amersham kit RPN2610)
Format: cell-based
Conditions: dermal fibroblast culture, test product conc. 0.001 % w/v, incubation 36 h at 37° C., threefold determination; for MMP with UVA: with UVA (method text: UVB radiation 50 mJ/cm^2)
Procedure: Inhibition of MMP-1 Synthesis
The capacity of the test substances to alleviate the toxic effect of UVA radiation was investigated. A culture of dermal fibroblasts was used as an in vitro system, and the release of MMP-1 from these fibroblasts as an effect of UV radiation was determined. In order to carry out the experiment, a fibroblast culture with fetal calf serum was prepared and inoculated with the test substances 2 days thereafter. After incubation for 36 h at 37° C. with a CO2 level of 5 vol %, the nutrient medium was replaced with an electrolyte solution, and the fibroblasts were damaged with a specified dose of UVB radiation (50 mJ/cm^2). Determination of MMP was carried out with a kit that is commercially available from the firm Amersham under the name RPN2610. The amount of MMP is given in ng/ml from a test series with threefold determination.

C[N+](C)(C)C[C@H](O)CC(=O)O.[Cl-] [Carnitine*HCl]
MMP with UVA: 118 ± 21 rel. %
MMP without UVA: 24 ± 7 rel. %

NCCC(=O)N[C@@H](Cc1cnc[nH]1)C(=O)O [L-carnosine]
MMP with UVA: 101 ± 17 rel. %
MMP without UVA: 22 ± 5 rel. %

CCCCC(CC)COC(=O)C(C#N)=C(c1ccccc1)c1ccccc1 (centres unmarked) [Octocrinyl, 2-cyano-3,3-phenylcinnamic acid-2-ethylhexyl ester]
MMP with UVA: 100 ± 20 rel. %
MMP without UVA: 17 ± 7 rel. %

CCCCCCOC(=O)c1ccccc1C(=O)c1ccc(N(CC)CC)cc1O [Uvinul A, 2-(4-diethylamino-2-hydroxybenzoyl)-benzoic acid hexyl ester]
MMP with UVA: 99 ± 12 rel. %
MMP without UVA: 17 ± 3 rel. %
